Patent publication US20220125987A1, “WOUND CLOSURE DEVICES COMPRISING PROTOCATECHUIC ACID” (priority 2020, published 2022)
“Also recorded” adds a separate entry of the source.

Columns and labels:
P. acnes = assay: Kirby-Bauer disc diffusion antimicrobial susceptibility testing; assay type: cell-based
[1] = system: Staphylococcus aureus ATCC 33591 (MRSA); assay: as above; assay type: cell-based
Pseudomonas aeruginosa [2] = assay: as above; assay type: cell-based
Candida albicans = assay: as above; assay type: cell-based
Excerpt: This example describes the method for testing the antimicrobial susceptibility of anthocyanins, anthocyanidins, or metabolites and compounds thereof. The Kirby-Bauer method of disc diffusion was used for testing, following a standard set of procedures recommended by the NCCLS. In this methodology, a set of discs saturated with either testing compounds or a control was placed on inoculated agar plates. The plates were inoculated with organisms including C. difficile, P. acnes, C. prefringens, L. casei, C. albicans, E. coli, ATTC 8739 and ATCC 43895, S. aureus, S. mutans, S. pyogenes, P. aeruginosa and K. pneumonia. The control sample was amoxicillin, an antimicrobial with very effective broad-spectrum antibiotic properties. Samples included delphinidin, pelargonidin, cyanidin CI, 28% cyanindin-3-glucoside (C3G), protocatechuic acid (PCA) and 2,4,6 Trihydroxybenzaldehyde (2,4,6 THBA).
After 18, 24, or 48 hours of incubation, depending upon the microorganism, each plate was examined. The diameters of the zones of complete inhibition were measured, including the diameter of the disc. Zones were measured to the nearest millimeter, using sliding calipers. The size of the zones of inhibition was interpreted by referring to NCCLS standard. […]

[3] = system: P. aeruginosa (ACTA 9027); assay: Mouse tape-stripped skin wound infection model (Example 2); assay type: in vivo; details: day five; for bacterial burden: topical aqueous 50, 100, 200 mM at two hours and daily for four days, none statistically significant; for most effective dose concentration: topical aqueous
[4] = system: P. aeruginosa (ACTA 27853); assay: Mouse tape-stripped skin wound infection model (Example 3); assay type: in vivo; details: for bacterial burden: 48 and 96 hours
Experimental: Mice had back skin tape stripped and the stripped site (wound) was infected with P. aeruginosa (ACTA 27853). The test reagents were applied topically in an aqueous solution on the stripped site at two hours and daily on day 1, 2 and 3.
C3G, an anthocyanin and its main metabolite PCA were formulated and tested at several doses. The aqueous carrier was water. The C3G formulation included 100 mM and 200 mM dose concentrations and the PCA formulation included 25 and 50 mM dose concentrations.

IGF-1, TGE-β, EGF = assay: Growth factor levels by ELISA in stripped, infected mouse skin (Example 5); assay type: in vivo, mice
Experimental: Four different conditions were used: mice had back skin tape stripped and the stripped site (wound) was infected with P. aeruginosa; mice had back skin stripped and were not infected, mice had taped stripped, infected and treated with PCA, mice were tape stripped, uninfected, and treated with PCA. When used, the PCA test reagent was applied topically in an aqueous solution on the stripped site at two hours and 24 hours.
The testing reagents consisted of and PCA formulated at one dose, 25 mM, in an aqueous solution. Levels of IGF-1, TGE-β, and EGF levels in the skin tissue at 48 hours were measured by ELISA. There were two control groups: the stripped skin and the stripped skin and infected.

Pseudomonas aeruginosa [5] = assay: Bacterial kill in stripped skin wound of a rodent; assay type: in vivo; details: for bactericidal effect on stripped skin wound: topical at various calculated doses, in 48 to 96 hours; for kill of Pseudomonas aeruginosa: topical on stripped skin wound, in 48 hours, both reagents and dose
Excerpt: Experimental Groups: There were 4 experimental groups. […] Treatment varied by reagent and dosage.

[6] = female, rat, in vivo
MRSA = details: cited from earlier work
Pseudomonas = details: cited from earlier work
[7] = rat, in vivo; cited from earlier work
[8] = human skin; cited from earlier work
[9] = after ingestion; cited from earlier work
[10] = system: stripped skin wound infected with Pseudomonas aeruginosa (ATCC 27853); assay: Histology of stripped, infected and treated mouse skin wound (Example 6); details: 48 hours; for tissue repair as evidenced by histology: two different doses
IGF-1, TGF-β, EGF = assay: Local growth factor levels in normal (unstripped, uninfected) mouse skin (Example 4); assay type: in vivo, mice; details: 100 μM topical, normal rodent skin
Experimental: Mice were shaved but unstrapped and uninfected (normal rodent skin). The test reagents were applied topically in an aqueous solution on the unstripped site at two hours and daily on day 1, 2 and 3. Testing reagents consisted of […] and PCA formulated at one dose, 100 μM in an aqueous solution.

[11] = all tested doses (PCA 25, 50 mM; C3G 100, 200 mM)

O=C(O)c1ccc(O)c(O)c1 [PCA, 3,4 dihydroxybenzoic acid]
activity against P. acnes (P. acnes): bactericidal | activity against Staphylococcus aureus ATCC 33591 (MRSA) [1]: effective | activity against Pseudomonas aeruginosa (Pseudomonas aeruginosa [2]): some effectiveness | susceptibility of Candida albicans (Candida albicans): susceptible | bacterial burden [3]: decreased the bacterial burden | most effective dose concentration [3]: 50 mM | statistical significance of bacterial burden reduction ([4]; 25 mM topical): statistically significant at 48 hours | bacterial burden ([4]; 25 mM topical): reduced the bacterial burden at both time periods | bacterial burden [4, 11]: decreased the bacterial burden | IGF-1 production (IGF-1, TGE-β, EGF; 25 mM topical at 2 and 24 hours, stripped and infected skin, 48 hours): optimizes the IGF-1 production | local growth hormones (IGF-1, TGE-β, EGF; 25 mM topical, stripped and infected skin): optimizes the local growth hormones | EGF response level (IGF-1, TGE-β, EGF; 25 mM topical, stripped, infected and treated wound vs other groups, 48 hours): lowest | bactericidal effect on stripped skin wound (Pseudomonas aeruginosa [5]): bactericidal | kill of Pseudomonas aeruginosa (Pseudomonas aeruginosa [5]): 10,000 fold | human relative dose to exceed safety [6]: 350,000 milligrams per day | biofilm destruction, MRSA (MRSA): biofilm destroyer | biofilm destruction, Pseudomonas (Pseudomonas): biofilm destroyer | toxicity [7]: greater than 5000 mg/kg body weight | skin irritation [8]: no skin irritation | duration of metabolism prior to excretion in the urine and feces [9]: eight | collagen between epidermis and dermis ([10]; PCA 25 mM): collagen proliferation between the epidermis and dermis; also recorded: collagen layer formation between the epidermis and dermis | dermal layer thickness ([10]; PCA 25 mM): thickened | hair follicles, cellular lining ([10]; PCA 25 mM): prominent with multiple cellular lining | inflammation ([10]; PCA 25 mM): abundant inflammation | surface cellularity ([10]; PCA 25 mM): abundant and multiple cell layers | vascularity ([10]; PCA 25 mM): moderate vascularity, but less than that seen in infected untreated group | dermal layer thickness ([10]; PCA 50 mM): thicker | hair follicles, cellular lining ([10]; PCA 50 mM): double layer of cells | inflammation ([10]; PCA 50 mM): increased in the dermis and below the muscle layer | surface cellularity ([10]; PCA 50 mM): covered with multiple layers of cells | vascularity ([10]; PCA 50 mM): increased vascularity | tissue repair as evidenced by histology [10]: stimulated tissue repair

CC1(C)S[C@@H]2[C@H](NC(=O)[C@H](N)c3ccc(O)cc3)C(=O)N2[C@H]1C(=O)O [Amoxicillin, amoxicillin, reference compound]
activity against Pseudomonas aeruginosa (Pseudomonas aeruginosa [2]): no effect

OC[C@H]1O[C@@H](Oc2cc3c(O)cc(O)cc3[o+]c2-c2ccc(O)c(O)c2)[C@H](O)[C@@H](O)[C@@H]1O [C3G, Cyanidin 3-glucoside]
activity against P. acnes (P. acnes): bactericidal | bacterial burden [3]: decreased the bacterial burden | most effective dose concentration [3]: 100 mM | bacterial burden ([4]; 100 mM topical): significantly reduced the bacterial burden | bacterial burden ([4]; 200 mM topical): significantly reduced the bacterial burden | bacterial burden [4, 11]: decreased the bacterial burden | all three local growth hormones (IGF-1, TGF-β, EGF) (IGF-1, TGF-β, EGF): decrease of all three local growth hormones | bactericidal effect on stripped skin wound (Pseudomonas aeruginosa [5]): bactericidal | kill of Pseudomonas aeruginosa (Pseudomonas aeruginosa [5]): 10,000 fold | dermal layer thickness ([10]; C3G 100 mM): thicker | hair follicles, cellular lining ([10]; C3G 100 mM): single and double cellular lining | inflammation ([10]; C3G 100 mM): inflammation in the dermis and muscular layer and below | surface cellularity ([10]; C3G 100 mM): multiple cellular covering of the surface | vascularity ([10]; C3G 100 mM): prominent | dermal layer thickness ([10]; C3G 200 mM): thickened | hair follicles, cellular lining ([10]; C3G 200 mM): single and double cellular lining | inflammation ([10]; C3G 200 mM): inflammation in the dermis and muscular layer | surface cellularity ([10]; C3G 200 mM): multiple cells thick | vascularity ([10]; C3G 200 mM): increased | tissue repair as evidenced by histology [10]: stimulated tissue repair
